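Values below derive from 48-hour exposures of cells grown in 96-well plates, with endpoints linearly interpolated between the two concentrations bracketing the appropriate inhibition level. Abbreviation: GI50, concentration required for 50% inhibition of growth.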 Calls of active or inactive are those of the source. No stated cut-off is given here; in the data, active = GI50 up to about 1.1 µM and inactive = higher.
What was measured:
Assay in all cases: growth of human tumour cells (NCI), 48 h
[1] = test system: SF-268
[2] = test system: RPMI-8226
[3] = test system: MOLT-4
[4] = test system: M14
[5] = test system: NCI-H460
[6] = test system: SK-MEL-5
[7] = test system: HOP-62
[8] = test system: COLO 205
[9] = test system: NCI-H226
[10] = test system: HOP-92
[11] = test system: SNB-75
[12] = test system: SK-OV-3
[13] = test system: UACC-257
[14] = test system: KM12
[15] = test system: UACC-62
[16] = test system: K562
[17] = test system: HL-60
[18] = test system: LOX IMVI

Compound | GI50 [1] | GI50 [2] | GI50 [3] | GI50 [4] | GI50 [5] | GI50 [6] | GI50 [7] | GI50 [8] | GI50 [9] | GI50 [10] | GI50 [11] | GI50 [12] | GI50 [13] | GI50 [14] | GI50 [15] | GI50 [16] | GI50 [17] | GI50 [18]
CC1(c2ccccc2)CC(c2cccc([N+](=O)[O-])c2)=NO1 (centres undefined) | > 100 µM (inactive) | 51.3 µM (inactive) | 56.2 µM (inactive) | > 100 µM (inactive) | > 100 µM (inactive) | 56.2 µM (inactive) | > 100 µM (inactive) | > 100 µM (inactive) | > 100 µM (inactive) | > 100 µM (inactive) | > 100 µM (inactive) | > 100 µM (inactive) | > 100 µM (inactive) | > 100 µM (inactive) | – | – | – | –
NC1=NN(c2ccccc2)C(=O)C1C(=O)C(=O)Nc1ccc(Cl)c(Cl)c1 (centres undefined) | > 100 µM (inactive) | > 100 µM (inactive) | > 100 µM (inactive) | > 100 µM (inactive) | > 100 µM (inactive) | > 100 µM (inactive) | > 100 µM (inactive) | > 100 µM (inactive) | > 100 µM (inactive) | > 100 µM (inactive) | 37.2 µM (inactive) | > 100 µM (inactive) | > 100 µM (inactive) | > 100 µM (inactive) | > 100 µM (inactive) | 32 µM (inactive) | 86.1 µM (inactive) | –
COc1ccc2ccnc(Cc3ccc(OCc4ccccc4)c(OC)c3)c2c1 | 22.1 µM (inactive) | 16.2 µM (inactive) | 17.6 µM (inactive) | 18 µM (inactive) | 18.9 µM (inactive) | 15.1 µM (inactive) | 15.8 µM (inactive) | – | – | – | 27 µM (inactive) | – | 20.8 µM (inactive) | 18 µM (inactive) | – | 31 µM (inactive) | – | –
COC(OC)c1cccnc1C | > 100 µM (inactive) | – | > 100 µM (inactive) | > 100 µM (inactive) | > 100 µM (inactive) | > 100 µM (inactive) | > 100 µM (inactive) | > 100 µM (inactive) | – | > 100 µM (inactive) | > 100 µM (inactive) | > 100 µM (inactive) | > 100 µM (inactive) | > 100 µM (inactive) | > 100 µM (inactive) | > 100 µM (inactive) | > 100 µM (inactive) | > 100 µM (inactive)
COc1cc(C(CC(OC)OC)=C(C#N)C#N)cc(OC)c1OC | 41.6 µM (inactive) | – | 7.26 µM (inactive) | – | 6.52 µM (inactive) | 7.4 µM (inactive) | – | 9.35 µM (inactive) | 0.485 µM (active) | 17.1 µM (inactive) | 22.8 µM (inactive) | 32.4 µM (inactive) | 18 µM (inactive) | 18.7 µM (inactive) | 26.7 µM (inactive) | – | 19.5 µM (inactive) | 10.5 µM (inactive)
CCN(CC)C(=O)Cc1c(C(=O)N(CC)CC)c(=O)nc2sccn12 | > 100 µM (inactive) | > 100 µM (inactive) | > 100 µM (inactive) | > 100 µM (inactive) | > 100 µM (inactive) | – | > 100 µM (inactive) | > 100 µM (inactive) | > 100 µM (inactive) | > 100 µM (inactive) | > 100 µM (inactive) | > 100 µM (inactive) | > 100 µM (inactive) | > 100 µM (inactive) | > 100 µM (inactive) | > 100 µM (inactive) | > 100 µM (inactive) | > 100 µM (inactive)
CON(C)C(=O)CCCO | > 100 µM (inactive) | > 100 µM (inactive) | > 100 µM (inactive) | > 100 µM (inactive) | > 100 µM (inactive) | > 100 µM (inactive) | > 100 µM (inactive) | > 100 µM (inactive) | > 100 µM (inactive) | > 100 µM (inactive) | > 100 µM (inactive) | > 10 µM (inactive) | > 100 µM (inactive) | > 100 µM (inactive) | > 100 µM (inactive) | > 100 µM (inactive) | > 100 µM (inactive) | –
c1ccc2c(NCCCCCCNc3cccc4ccccc34)cccc2c1 | > 100 µM (inactive) | 87.3 µM (inactive) | 44.3 µM (inactive) | > 100 µM (inactive) | > 100 µM (inactive) | 60.3 µM (inactive) | > 100 µM (inactive) | > 100 µM (inactive) | > 100 µM (inactive) | 50.7 µM (inactive) | 2.77 µM (inactive) | > 100 µM (inactive) | > 100 µM (inactive) | > 100 µM (inactive) | 64.6 µM (inactive) | > 100 µM (inactive) | 51.5 µM (inactive) | –
O=[N+]([O-])c1cccc(C(O)/C(=N/O)c2nc3ccc(Cl)cc3nc2O)c1 (centres undefined) | – | > 100 µM (inactive) | > 100 µM (inactive) | > 100 µM (inactive) | > 100 µM (inactive) | > 100 µM (inactive) | > 100 µM (inactive) | > 100 µM (inactive) | > 100 µM (inactive) | > 100 µM (inactive) | > 100 µM (inactive) | > 100 µM (inactive) | > 100 µM (inactive) | > 100 µM (inactive) | > 100 µM (inactive) | > 100 µM (inactive) | > 100 µM (inactive) | > 100 µM (inactive)
Cn1c2c(c3ccccc31)CCN(CCN1CCN(c3cccc(Cl)c3)CC1)C2=O | > 100 µM (inactive) | 21.6 µM (inactive) | 43.8 µM (inactive) | 46 µM (inactive) | – | 23.6 µM (inactive) | > 100 µM (inactive) | 40.7 µM (inactive) | – | 19.9 µM (inactive) | – | > 100 µM (inactive) | – | – | 72.9 µM (inactive) | 35.3 µM (inactive) | 15.9 µM (inactive) | 57.9 µM (inactive)
O=C(Nc1ccccc1-c1nc2ccccc2[nH]c1=O)c1ccccc1 | 22.9 µM (inactive) | 21.8 µM (inactive) | > 100 µM (inactive) | 59.6 µM (inactive) | 21.5 µM (inactive) | 32.6 µM (inactive) | 19.5 µM (inactive) | > 100 µM (inactive) | 25.2 µM (inactive) | 21.4 µM (inactive) | 13.8 µM (inactive) | 20.3 µM (inactive) | 44 µM (inactive) | 28.7 µM (inactive) | 26.1 µM (inactive) | > 100 µM (inactive) | – | 24.3 µM (inactive)
C=CCC1C(=O)CC2(C)C(CC=C)C(=O)CC12C (centres undefined) | – | > 100 µM (inactive) | > 100 µM (inactive) | > 100 µM (inactive) | > 100 µM (inactive) | > 100 µM (inactive) | > 100 µM (inactive) | > 100 µM (inactive) | > 100 µM (inactive) | > 100 µM (inactive) | > 100 µM (inactive) | > 100 µM (inactive) | > 100 µM (inactive) | > 100 µM (inactive) | > 100 µM (inactive) | > 100 µM (inactive) | > 100 µM (inactive) | > 100 µM (inactive)
CCOC(=O)C1(CC)CCCCC(=O)N1 (centres undefined) | > 100 µM (inactive) | – | – | > 100 µM (inactive) | > 100 µM (inactive) | – | > 100 µM (inactive) | > 100 µM (inactive) | – | > 100 µM (inactive) | – | > 100 µM (inactive) | – | – | > 100 µM (inactive) | > 100 µM (inactive) | 36.2 µM (inactive) | > 100 µM (inactive)
CS(=O)(=O)OCCN1CCN(C(=O)c2ccc(Cl)c3c(Nc4ccc(S(=O)(=O)N=C(N)N)cc4)c4ccccc4nc23)CC1 | > 100 µM (inactive) | > 100 µM (inactive) | > 100 µM (inactive) | > 100 µM (inactive) | > 100 µM (inactive) | > 100 µM (inactive) | > 100 µM (inactive) | > 100 µM (inactive) | > 100 µM (inactive) | > 100 µM (inactive) | > 100 µM (inactive) | > 100 µM (inactive) | > 100 µM (inactive) | > 100 µM (inactive) | > 100 µM (inactive) | > 100 µM (inactive) | > 100 µM (inactive) | –
CCN(CC)Cc1cc(Nc2ccnc3ccc4nn(C)nc4c23)ccc1O | 13.6 µM (inactive) | 7.85 µM (inactive) | 6.58 µM (inactive) | 14.3 µM (inactive) | 5.64 µM (inactive) | 16.3 µM (inactive) | 16.9 µM (inactive) | 5.02 µM (inactive) | 22.5 µM (inactive) | – | 12.3 µM (inactive) | 18.5 µM (inactive) | 13.9 µM (inactive) | 10.5 µM (inactive) | 13.7 µM (inactive) | > 100 µM (inactive) | 84.9 µM (inactive) | 7.73 µM (inactive)
C=Cc1ccc(C)[n+](C[Si](C)(C)O[Si](C)(C)C)c1 | > 100 µM (inactive) | > 100 µM (inactive) | > 100 µM (inactive) | > 100 µM (inactive) | – | > 100 µM (inactive) | > 100 µM (inactive) | > 100 µM (inactive) | > 100 µM (inactive) | – | > 100 µM (inactive) | > 100 µM (inactive) | > 100 µM (inactive) | > 100 µM (inactive) | > 100 µM (inactive) | > 100 µM (inactive) | – | > 100 µM (inactive)
Cc1cc2c(ccc3c(C)cc(=O)oc32)o1 | > 81.3 µM (inactive) | > 100 µM (inactive) | > 100 µM (inactive) | > 100 µM (inactive) | > 100 µM (inactive) | > 100 µM (inactive) | > 100 µM (inactive) | > 100 µM (inactive) | > 100 µM (inactive) | > 100 µM (inactive) | 35.6 µM (inactive) | > 100 µM (inactive) | > 100 µM (inactive) | > 100 µM (inactive) | > 100 µM (inactive) | > 100 µM (inactive) | – | > 100 µM (inactive)
